pEC50: −log10 of the molar value. Read-outs that look alike come from different tables or passages of the source. Starred links: 1 amine or outer side, 2 acyl side, 3 side chain; linkers in the order of their positions; H or OH if unused. Non-standard residues stand in square brackets, D forms with d. Residues, ends and D or L forms follow the SMILES beside them. *: point of attachment. dBip = N[C@H](Cc1ccc(-c2ccccc2)cc1)C(=O)O; Oic = O=C(O)[C@@H]1C[C@@H]2CCCC[C@@H]2N1; Phe(4-Cl) = N[C@@H](Cc1ccc(Cl)cc1)C(=O)O; dPhe(4-Cl) = N[C@H](Cc1ccc(Cl)cc1)C(=O)O; Phe(4-I) = N[C@@H](Cc1ccc(I)cc1)C(=O)O; γGlu = O=C(O)[C@H](CCC(=O)[*:2])N[*:1]; 2Nal = N[C@@H](Cc1ccc2ccccc2c1)C(=O)O; NMehArg = CN[C@@H](CCCCNC(=N)N)C(=O)O; NMeR = CN[C@@H](CCCNC(=N)N)C(=O)O; Palmitoyl = CCCCCCCCCCCCCCCC(=O)*; Tridecanoyl = CCCCCCCCCCCCC(=O)*; hArg = N=C(N)NCCCC[C@H](N)C(=O)O; αMeF = C[C@](N)(Cc1ccccc1)C(=O)O; 3Pal = N[C@@H](Cc1cccnc1)C(=O)O; Cha = N[C@@H](CC1CCCCC1)C(=O)O; NMeL = CN[C@@H](CC(C)C)C(=O)O; αMeL = CC(C)C[C@](C)(N)C(=O)O; αMeOrn = C[C@](N)(CCCN)C(=O)O; αMeP = C[C@@]1(C(=O)O)CCCN1; β3hP = O=C(O)C[C@@H]1CCCN1; Pip = O=C(O)[C@@H]1CCCCN1; β3hS = N[C@@H](CO)CC(=O)O; Nle = CCCC[C@H](N)C(=O)O; Orn = NCCC[C@H](N)C(=O)O; AEEA = NCCOCCOCC(=O)O; Aib = CC(C)(N)C(=O)O; NPrGly = CCCNCC(=O)O; βAla = NCCC(=O)O
Target: T1, human APJ receptor (Homo sapiens, UniProt P35414)
T1 construct: expressed in transfected cells
T1 sequence (P35414 1-380): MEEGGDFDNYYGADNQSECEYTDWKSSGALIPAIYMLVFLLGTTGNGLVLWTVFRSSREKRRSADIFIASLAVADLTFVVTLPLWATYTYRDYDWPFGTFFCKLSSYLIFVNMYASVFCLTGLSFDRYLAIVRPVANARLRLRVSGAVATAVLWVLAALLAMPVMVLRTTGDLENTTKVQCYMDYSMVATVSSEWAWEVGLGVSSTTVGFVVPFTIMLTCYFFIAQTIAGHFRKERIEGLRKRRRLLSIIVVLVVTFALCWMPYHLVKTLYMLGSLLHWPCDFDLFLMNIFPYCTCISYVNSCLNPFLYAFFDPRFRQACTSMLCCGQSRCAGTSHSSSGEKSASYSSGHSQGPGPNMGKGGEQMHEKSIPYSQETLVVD
Assay: [35S] GTPγS assay, human APJ receptor
Type: biochemical
Procedure: The membranes were incubated with modified peptides in the assay buffer. […] Bound [^35S] GTPγS was separated from free radiolabel by filtration. The filter bound radioactivity was determined by liquid scintillation counting.

Structure (SMILES)	pEC50 (Table 16)	pEC50 (human APJ receptor)	also measured
CCCCCCCCCCCCC(=O)N[C@@H](CCC(=O)NCCOCCOCC(=O)NCCOCCOCC(=O)N[C@H](CCC(N)=O)C(=O)N[C@@H](CCC(=O)O)C(=O)N1CCC[C@H]1C(=O)N(C)[C@@H](CCCNC(=N)N)C(=O)N[C@@H](CC1CCCCC1)C(=O)N[C@@H](CO)C(=O)N[C@@H](Cc1c[nH]cn1)C(=O)N[C@@H](CCCCN)C(=O)NCC(=O)N1[C@H](C(=O)N[C@@H](CCCC)C(=O)NC(C)(C)C(=O)N[C@@H](Cc2ccc(Cl)cc2)C(=O)O)C[C@@H]2CCCC[C@@H]21)C(=O)O [compound 524] ({Tridecanoyl-γGlu-AEEA-AEEA}-[dQ]EP[NMeR][Cha]SHKG[Oic][Nle][Aib][Phe(4-Cl)]-OH)	7.27	–	–
CCCC[C@H](NC(=O)[C@]1(C)CCCN1C(=O)CNC(=O)[C@H](CCCCN)NC(=O)[C@H](Cc1c[nH]cn1)NC(=O)[C@H](CO)NC(=O)[C@H](CC1CCCCC1)NC(=O)[C@H](CCCNC(=N)N)N(C)C(=O)[C@@H]1CCCN1C(=O)[C@H](CCCNC(=N)N)NC(=O)[C@@H](CCC(N)=O)NC(C)=O)C(=O)NC(C)(C)C(=O)N[C@@H](Cc1ccc(Cl)cc1)C(=O)O [compound 93] (Ac-[dQ]RP[NMeR][Cha]SHKG[αMeP][Nle][Aib][Phe(4-Cl)]-OH)	–	9.64	–
CC(C)C[C@@H](C(=O)N[C@@H](CO)C(=O)N[C@@H](Cc1c[nH]cn1)C(=O)N[C@@H](CCCCN)C(=O)NCC(=O)N1[C@H](C(=O)N[C@@H](Cc2ccc(I)cc2)C(=O)N2CCC[C@H]2C(=O)N[C@H](Cc2ccc(-c3ccccc3)cc2)C(=O)O)C[C@@H]2CCCC[C@@H]21)N(C)C(=O)[C@@H](CCCNC(=N)N)NC(=O)[C@@H]1CCCN1C(=O)[C@H](CCCCNC(=N)N)NC(=O)[C@H](CCC(N)=O)NC(=O)[C@@H](CCCNC(=N)N)NC(=O)[C@H](CCCCNC(=N)N)NC(=O)COCCOCCNC(=O)COCCOCCNC(=O)CC[C@H](NC(=O)CCCCCCCCC(=O)O)C(=O)O [compound 291]	–	8.47	–
CCCC[C@H](NC(=O)[C@@H]1CCCN1C(=O)CNC(=O)[C@H](CCCCN)NC(=O)[C@H](Cc1c[nH]cn1)NC(=O)[C@H](CO)NC(=O)[C@H](CC1CCCCC1)NC(=O)[C@H](CCCCNC(=N)N)NC(=O)[C@@H]1CCCN1C(=O)[C@H](CCCNC(=N)N)NC(=O)[C@H](CCC(N)=O)NC(=O)[C@H](CCCCNC(=N)N)NC(=O)[C@H](CCCCNC(=N)N)NC(=O)[C@H](Cc1ccccc1)NC(=O)[C@H](CCCN)NC(C)=O)C(=O)N[C@@H](Cc1ccc2ccccc2c1)C(=O)O [compound 49] (Ac-[Orn]F[hArg][hArg]QRP[hArg][Cha]SHKGP[Nle][2Nal]-OH)	–	–	pEC50: 9.80
CCCCCCCCCCCCC(=O)N[C@@H](CCC(=O)NCCOCCOCC(=O)NCCOCCOCC(=O)N[C@H](CCC(N)=O)C(=O)N[C@@H](CCCNC(=N)N)C(=O)N1CCC[C@H]1C(=O)N(C)[C@@H](CCCNC(=N)N)C(=O)N[C@@](C)(CC(C)C)C(=O)N[C@@H](CO)CC(=O)N[C@@H](Cc1c[nH]cn1)C(=O)N[C@@H](CCCCN)C(=O)NCC(=O)N1[C@H](C(=O)N[C@@H](CCCC)C(=O)N2CCC[C@@]2(C)C(=O)N[C@@H](Cc2ccc(Cl)cc2)C(=O)O)C[C@@H]2CCCC[C@@H]21)C(=O)O [compound 518] ({Tridecanoyl-γGlu-AEEA-AEEA}-[dQ]RP[NMeR][αMeL][β3hS]HKG[Oic][Nle][αMeP][Phe(4-Cl)]-OH)	9.95	–	–
CCCCCCCCCCCCCCCC(=O)N[C@@H](CCC(=O)NCCOCCOCC(=O)NCCOCCOCC(=O)N[C@H](CCC(N)=O)C(=O)N[C@@H](CCCNC(=N)N)C(=O)N1CCC[C@H]1C(=O)N(C)[C@@H](CCCNC(=N)N)C(=O)N[C@@H](CC1CCCCC1)C(=O)N[C@@H](CO)C(=O)N(CCC)CC(=O)N[C@@H](CCCCN)C(=O)NCC(=O)N1CCCC[C@H]1C(=O)N[C@@H](CCCC)C(=O)NC(C)(C)C(=O)N[C@@H](Cc1ccc(Cl)cc1)C(=O)O)C(=O)O [compound 644] ({Palmitoyl-γGlu-AEEA-AEEA}-[dQ]RP[NMeR][Cha]S[NPrGly]KG[Pip][Nle][Aib][Phe(4-Cl)]-OH)	–	8.85	–
CCCCCCCCCCCCC(=O)N[C@@H](CCC(=O)NCCOCCOCC(=O)NCCOCCOCC(=O)N[C@@H](CCCNC(=N)N)C(=O)N[C@@H](CCC(N)=O)C(=O)N[C@@H](CCCNC(=N)N)C(=O)N1CCC[C@H]1C(=O)N[C@@H](CCCCN)C(=O)N[C@@H](CC1CCCCC1)C(=O)N[C@@H](C)C(=O)N[C@@H](C)C(=O)N[C@@H](CCCC)C(=O)NCC(=O)N1[C@H](C(=O)N[C@@H](CCCC)C(=O)N2CCC[C@H]2C(=O)N[C@@H](Cc2ccc(Cl)cc2)C(=O)O)C[C@@H]2CCCC[C@@H]21)C(=O)O [compound 346] ({Tridecanoyl-γGlu-AEEA-AEEA}-RQRPK[Cha]AA[Nle]G[Oic][Nle]P[Phe(4-Cl)]-OH)	8.56	–	–
CCCC[C@H](NC(=O)[C@@H]1CCCN1C(=O)CNC(=O)[C@H](CCCCN)NC(=O)[C@H](Cc1c[nH]cn1)NC(=O)[C@H](CO)NC(=O)[C@H](CC(C)C)NC(=O)[C@H](CCCCNC(=N)N)N(C)C(=O)[C@H](CCCNC(=N)N)NC(=O)[C@H](CCC(N)=O)NC(C)=O)C(=O)N1CCC[C@H]1C(=O)N[C@@H](Cc1ccc(Cl)cc1)C(=O)O [compound 73] (Ac-QR[NMehArg]LSHKGP[Nle]P[Phe(4-Cl)]-OH)	–	8.74	–
CCCCCCCCCCCCCCCC(=O)N[C@@H](CCC(=O)NCCOCCOCC(=O)NCCOCCOCC(=O)N[C@H](CCC(N)=O)C(=O)N[C@@H](CCCNC(=N)N)C(=O)N1CCC[C@H]1C(=O)N(C)[C@@H](CCCNC(=N)N)C(=O)N[C@@H](CC1CCCCC1)C(=O)N[C@@H](CO)C(=O)N[C@@H](Cc1c[nH]cn1)C(=O)N[C@@H](CCCCN)C(=O)NCC(=O)N1[C@H](C(=O)N[C@@H](CCCC)C(=O)N2CCCC[C@H]2C(=O)N[C@@](C)(Cc2ccccc2)C(=O)O)C[C@@H]2CCCC[C@@H]21)C(=O)O [compound 609] ({Palmitoyl-γGlu-AEEA-AEEA}-[dQ]RP[NMeR][Cha]SHKG[Oic][Nle][Pip][αMeF]-OH)	–	8.90	–
CCCCCCCCCCCCCCCC(=O)N[C@@H](CCC(=O)NCCOCCOCC(=O)NCCOCCOCC(=O)N[C@H](CCC(N)=O)C(=O)N[C@@H](CCCNC(=N)N)C(=O)N1CCC[C@H]1C(=O)N(C)[C@@H](CCCNC(=N)N)C(=O)N[C@@](C)(CC(C)C)C(=O)N[C@@H](CO)C(=O)N[C@@H](Cc1c[nH]cn1)C(=O)N[C@@](C)(CCCN)C(=O)NCC(=O)N1[C@H](C(=O)N[C@@H](CCCC)C(=O)N2CCC[C@H]2CC(=O)N[C@@H](Cc2ccc(Cl)cc2)C(=O)O)C[C@@H]2CCCC[C@@H]21)C(=O)O [compound 635] ({Palmitoyl-γGlu-AEEA-AEEA}-[dQ]RP[NMeR][αMeL]SH[αMeOrn]G[Oic][Nle][β3hP][Phe(4-Cl)]-OH)	–	8.79	–
CCCCCCCCCCCCC(=O)N[C@@H](CCC(=O)NCCOCCOCC(=O)NCCOCCOCC(=O)N[C@H](CCC(N)=O)C(=O)N[C@@H](CCCCNC(=N)N)C(=O)N1CCC[C@H]1C(=O)N(C)[C@@H](CCCNC(=N)N)C(=O)N[C@@H](CC1CCCCC1)C(=O)N[C@@H](CO)C(=O)N[C@@H](Cc1c[nH]cn1)C(=O)N[C@@H](CCCCN)C(=O)NCCC(=O)N1[C@H](C(=O)N[C@@H](CCCC)C(=O)N2CCC[C@H]2C(=O)N[C@H](Cc2ccc(Cl)cc2)C(=O)O)C[C@@H]2CCCC[C@@H]21)C(=O)O [compound 294] ({Tridecanoyl-γGlu-AEEA-AEEA}-[dQ][hArg]P[NMeR][Cha]SHK[βAla][Oic][Nle]P[dPhe(4-Cl)]-OH)	< 5.38	–	–
CCCCCCCCCCCCC(=O)N[C@@H](CCC(=O)NCCOCCOCC(=O)NCCOCCOCC(=O)N[C@H](CCC(N)=O)C(=O)N[C@H](CCC(=O)O)C(=O)N1CCC[C@H]1C(=O)N(C)[C@@H](CCCNC(=N)N)C(=O)N[C@@H](CC1CCCCC1)C(=O)N[C@@H](CO)C(=O)N[C@@H](Cc1c[nH]cn1)C(=O)N[C@@H](CCCCN)C(=O)NCC(=O)N1[C@H](C(=O)N[C@@H](CCCC)C(=O)NC(C)(C)C(=O)N[C@@H](Cc2ccc(Cl)cc2)C(=O)O)C[C@@H]2CCCC[C@@H]21)C(=O)O [compound 525] ({Tridecanoyl-γGlu-AEEA-AEEA}-[dQ][dE]P[NMeR][Cha]SHKG[Oic][Nle][Aib][Phe(4-Cl)]-OH)	6.80	–	–
CCCCCCCCCCCCCCCC(=O)N[C@@H](CCC(=O)NCCOCCOCC(=O)NCCOCCOCC(=O)N[C@H](CCC(N)=O)C(=O)N[C@@H](CCCNC(=N)N)C(=O)N1CCC[C@H]1C(=O)N(C)[C@@H](CCCNC(=N)N)C(=O)N[C@@](C)(CC(C)C)C(=O)N[C@@H](CO)C(=O)N[C@@H](Cc1c[nH]cn1)C(=O)N[C@@H](Cc1cccnc1)C(=O)NCC(=O)N1[C@H](C(=O)N[C@@H](CCCC)C(=O)N2CCC[C@H]2CC(=O)N[C@@H](Cc2ccc(Cl)cc2)C(=O)O)C[C@@H]2CCCC[C@@H]21)C(=O)O [compound 636] ({Palmitoyl-γGlu-AEEA-AEEA}-[dQ]RP[NMeR][αMeL]SH[3Pal]G[Oic][Nle][β3hP][Phe(4-Cl)]-OH)	–	8.80	–
CCCCCCCCCCCCC(=O)N[C@@H](CCC(=O)NCCOCCOCC(=O)NCCOCCOCC(=O)N[C@@H](CCCCNC(=N)N)C(=O)N[C@@H](CCCC)C(=O)N[C@@H](CCC(N)=O)C(=O)N[C@@H](CCCCNC(=N)N)C(=O)N1CCC[C@H]1C(=O)N[C@H](CCCNC(=N)N)C(=O)N(C)[C@@H](CC(C)C)C(=O)N[C@@H](C)C(=O)N[C@@H](Cc1c[nH]cn1)C(=O)N[C@@H](CCCCN)C(=O)NCC(=O)N1[C@H](C(=O)N[C@@H](Cc2ccc(I)cc2)C(=O)N2CCC[C@H]2C(=O)N[C@H](Cc2ccc(-c3ccccc3)cc2)C(=O)O)C[C@@H]2CCCC[C@@H]21)C(=O)O [compound 321] ({Tridecanoyl-γGlu-AEEA-AEEA}-[hArg][Nle]Q[hArg]P[dR][NMeL]AHKG[Oic][Phe(4-I)]P[dBip]-OH)	–	7.75	–

— patent US11807693B2 (priority 2014, dated 2023)
